Test results from patent US10815238B2, “Antimicrobial compounds and methods of making and using the same” (BIOVERSYS AG, priority 2013, dated 2020).
Read-outs that look alike come from different tables or passages of the source.

How the values were obtained:
[1] = tested on: Staphylococcus aureus (S. aureus) 11540 strain; experiment: Standard microdilution assay, MIC against S. aureus 11540; format: cell-based; conditions: read-out: MIC S. aureus
Method in brief: (§1)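 Scoring as + or − used a 16 micrograms/mL cutoff on minimum inhibitory concentrations. These came from CLSI-standard microdilution, quality-controlled with reference strains tested in the same run.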

[2] = tested on: Eschericia coli (E. coli) strain ATCC25922; experiment: Standard microdilution assay, MIC against E. coli ATCC25922; format: cell-based; conditions: Escherichia coli
Method in brief: as §1

[3] = S. aureus 11540 strain, standard microdilution assay, cutoff 16 micrograms/mL
[4] = E. coli strain ATCC25922, standard microdilution assay, cutoff 16 micrograms/mL, read-out: MIC E. Coli

SMILES: C[C@H](N)CCCc1cc(Cl)c(F)c(-c2cc3cn(-c4ccc([C@@H]5COC[C@@H](CN)N5)cc4)c(=O)nc3[nH]2)c1 [Compound 464]
- MIC [1, 3]: < 16 µg/mL
- MIC [2, 4]: < 16 µg/mL

SMILES: C[C@H](N)CCCc1cc(Cl)c(F)c(-c2cc3cn(-c4ccc([C@@H]5COC[C@@H](CNC(=N)N)N5)cc4)c(=O)nc3[nH]2)c1 [Compound 465]
- MIC [1, 3]: < 16 µg/mL
- MIC [2, 4]: < 16 µg/mL

SMILES: C[C@H](N)CCCc1cc(OC(F)(F)F)c(F)c(-c2cc3cn(-c4ccc([C@@H]5COC[C@@H](CNC(=N)N)N5)cc4)c(=O)nc3[nH]2)c1 [Compound 466]
- MIC [1, 3]: < 16 µg/mL
- MIC [2, 4]: < 16 µg/mL

SMILES: CCOP(=O)(OCC)OC[C@H](N)CCCc1cc(Cl)c(F)c(-c2cc3cn(-c4ccc([C@H](C)NCCCNC(=N)N)cc4)c(=O)nc3[nH]2)c1 [Compound 467]
- MIC [1, 3]: < 16 µg/mL
- MIC [2, 4]: < 16 µg/mL

SMILES: CCOP(=O)(OCC)OC[C@@H]1COC[C@H](c2ccc(-n3cc4cc(-c5cc(CCC[C@H](C)N)cc(Cl)c5F)[nH]c4nc3=O)cc2)N1 [Compound 468]
- MIC [1, 3]: < 16 µg/mL
- MIC [2, 4]: > 16 µg/mL

SMILES: C[C@H](N)CCCc1cc(Cl)c(F)c(-c2cc3cn(-c4ccc([C@H]5CC(CCNC(=N)N)CN5)cc4)c(=O)nc3[nH]2)c1 (some centres unmarked) [Compound 469]
- MIC [1, 3]: < 16 µg/mL
- MIC [2, 4]: < 16 µg/mL

SMILES: C[C@H](N)CCCc1cc(OC(F)(F)F)c(F)c(-c2cc3cn(-c4ccc([C@H]5CC(CCNC(=N)N)CN5)cc4)c(=O)nc3[nH]2)c1 (some centres unmarked) [Compound 470]
- MIC [1, 3]: < 16 µg/mL
- MIC [2, 4]: < 16 µg/mL

SMILES: C[C@H](N)CCCc1cc(Cl)c(F)c(-c2cc3cn(-c4ccc(C(O)CNC(=N)N)cc4)c(=O)nc3[nH]2)c1 (some centres unmarked) [Compound 471]
- MIC [1, 3]: < 16 µg/mL
- MIC [2, 4]: < 16 µg/mL

SMILES: C[C@H](N)CCCc1cc(OC(F)(F)F)c(F)c(-c2cc3cn(-c4ccc(C(O)CNC(=N)N)cc4)c(=O)nc3[nH]2)c1 (some centres unmarked) [Compound 472]
- MIC [1, 3]: < 16 µg/mL
- MIC [2, 4]: < 16 µg/mL

SMILES: C[C@H](N)CCCc1cc(Cl)c(F)c(-c2cc3cn(-c4ccc(C(N)CNC(=N)N)cc4)c(=O)nc3[nH]2)c1 (some centres unmarked) [Compound 473]
- MIC [1, 3]: < 16 µg/mL
- MIC [2, 4]: < 16 µg/mL

SMILES: C[C@H](N)CCCc1cc(OC(F)(F)F)c(F)c(-c2cc3cn(-c4ccc(C(N)CNC(=N)N)cc4)c(=O)nc3[nH]2)c1 (some centres unmarked) [Compound 474]
- MIC [1, 3]: < 16 µg/mL
- MIC [2, 4]: < 16 µg/mL

SMILES: C[C@H](N)CCCc1cc(Cl)c(F)c(-c2cc3cn(-c4ccc(C(=O)NCCCN)cc4)c(=O)nc3[nH]2)c1 [Compound 475]
- MIC [1, 3]: < 16 µg/mL
- MIC [2, 4]: < 16 µg/mL

SMILES: C[C@H](NCCCNC(=N)N)c1ccc(-n2cc3cc(-c4cc(CCC[C@H](N)CO)cc(Cl)c4F)[nH]c3nc2=O)cc1 [Compound 476]
- MIC [1, 3]: < 16 µg/mL
- MIC [2, 4]: < 16 µg/mL

SMILES: C[C@H](N)CCCc1cc(Cl)c(F)c(-c2cc3cn(-c4ccc(C(=N)NCCCNC(=N)N)cc4)c(=O)nc3[nH]2)c1 [Compound 477]
- MIC [1, 3]: < 16 µg/mL
- MIC [2, 4]: < 16 µg/mL

SMILES: C[C@H](N)CCCc1cc(Cl)c(F)c(-c2cc3cn(-c4ccc([C@@H]5CCC[C@@H](CCn6ccnn6)N5)cc4)c(=O)nc3[nH]2)c1 [Compound 478]
- MIC [1, 3]: > 16 µg/mL
- MIC [2, 4]: > 16 µg/mL

SMILES: C[C@H](N)CCCc1cc(OC(F)(F)F)c(F)c(-c2cc3cn(-c4ccc([C@@H]5CCC[C@@H](CCn6ccnn6)N5)cc4)c(=O)nc3[nH]2)c1 [Compound 479]
- MIC [1, 3]: > 16 µg/mL
- MIC [2, 4]: > 16 µg/mL

SMILES: C[C@H](N)CCCc1cc(OC(F)(F)F)c(F)c(-c2cc3cn(-c4ccc(C(CO)CNC(=N)N)cc4)c(=O)nc3[nH]2)c1 (some centres unmarked) [Compound 480]
- MIC [1, 3]: < 16 µg/mL
- MIC [2, 4]: < 16 µg/mL

SMILES: C[C@H](N)CCCc1cc(OC(F)(F)F)c(F)c(-c2cc3cn(-c4ccc([C@H](C)NCCC(CC5CNC5)NC(=N)N)cc4)c(=O)nc3[nH]2)c1 (some centres unmarked) [Compound 481]
- MIC [1, 3]: < 16 µg/mL
- MIC [2, 4]: < 16 µg/mL

SMILES: N=C(N)NCC[C@H]1CC[C@H](c2ccc(-n3cc4cc(-c5cc(CCC[C@@H](N)CO)cc(Cl)c5F)[nH]c4nc3=O)cc2)N1 [Compound 482]
- MIC [1, 3]: < 16 µg/mL
- MIC [2, 4]: < 16 µg/mL

SMILES: NCC[C@@H]1CCC[C@@H](c2ccc(-n3cc4cc(-c5cc(CCC[C@@H](N)CO)cc(Cl)c5F)[nH]c4nc3=O)cc2)N1 [Compound 483]
- MIC [1, 3]: < 16 µg/mL
- MIC [2, 4]: < 16 µg/mL

SMILES: N=C(N)NCC[C@@H]1CCC[C@@H](c2ccc(-n3cc4cc(-c5cc(CCC[C@@H](N)CO)cc(Cl)c5F)[nH]c4nc3=O)cc2)N1 [Compound 484]
- MIC [1, 3]: < 16 µg/mL
- MIC [2, 4]: < 16 µg/mL

SMILES: C[C@H](N)CCCc1cc(-c2cc3cn(-c4ccc([C@@H]5CCC[C@@H](CCN)N5)cc4)c(=O)nc3[nH]2)cc(C(F)(F)F)c1 [Compound 485]
- MIC [1, 3]: < 16 µg/mL
- MIC [2, 4]: < 16 µg/mL

SMILES: C[C@H](N)CCCc1cc(-c2cc3cn(-c4ccc([C@@H]5CCC[C@@H](CCNC(=N)N)N5)cc4)c(=O)nc3[nH]2)cc(C(F)(F)F)c1 [Compound 486]
- MIC [1, 3]: < 16 µg/mL
- MIC [2, 4]: < 16 µg/mL

SMILES: C[C@H](NCCCNC(=N)N)c1ccc(-n2cc3cc(-c4cc(CCC[C@@H](N)COP(=O)(O)O)cc(Cl)c4F)[nH]c3nc2=O)cc1 [Compound 487]
- MIC [1, 3]: < 16 µg/mL
- MIC [2, 4]: < 16 µg/mL

SMILES: C[C@H](NCCCNC(=N)N)c1ccc(-n2cc3cc(-c4cc(CCC[C@@H](N)COP(=O)(Oc5ccccc5)Oc5ccccc5)cc(Cl)c4F)[nH]c3nc2=O)cc1 [Compound 488]
- MIC [1]: < 16 µg/mL
- MIC ([2]; ATCC25922, read-out: MIC E. Coli): < 16 µg/mL

SMILES: C[C@H](N)CCCc1cc(Cl)c(F)c(-c2cc3cn(-c4ccc([C@@H]5CCC[C@@H](Cc6cnn[nH]6)N5)cc4)c(=O)nc3[nH]2)c1 [Compound 489]
- MIC [1, 3]: > 16 µg/mL
- MIC [2, 4]: > 16 µg/mL

SMILES: C[C@H](N)CCCc1cc(Cl)c(F)c(-c2cc3cn(-c4ccc(CN[C@H](CCN)CNc5nccs5)cc4)c(=O)nc3[nH]2)c1 [Compound 490]
- MIC [1, 3]: < 16 µg/mL
- MIC [2, 4]: < 16 µg/mL

SMILES: C[C@H](N)CCCc1cc(Cl)c(F)c(-c2cc3cn(-c4ccc(CN[C@H](CCNC(=N)N)CNc5nccs5)cc4)c(=O)nc3[nH]2)c1 [Compound 491]
- MIC [1, 3]: < 16 µg/mL
- MIC [2, 4]: < 16 µg/mL

SMILES: N=C(N)NCC[C@@H]1CCC[C@@H](c2ccc(-n3cc4cc(-c5ccc(S(=O)(=O)NC6CCNCC6)cc5)[nH]c4nc3=O)cc2)N1 [Compound 492]
- MIC [1, 3]: < 16 µg/mL
- MIC [2, 4]: < 16 µg/mL

SMILES: NCC[C@@H]1CCC[C@@H](c2ccc(-n3cc4cc(-c5ccc(S(=O)(=O)NC6CCNCC6)cc5)[nH]c4nc3=O)cc2)N1 [Compound 493]
- MIC [1, 3]: < 16 µg/mL
- MIC [2, 4]: < 16 µg/mL

SMILES: N=C(N)NCC[C@@H]1CCC[C@@H](c2ccc(-n3cc4cc(-c5ccc(S(=O)(=O)NC6CCN(C(=N)N)CC6)cc5)[nH]c4nc3=O)cc2)N1 [Compound 494]
- MIC [1, 3]: < 16 µg/mL
- MIC [2, 4]: < 16 µg/mL

SMILES: C[C@H](N)CCCc1cc(Cl)c(F)c(-c2cc3cn(-c4ccc([C@@H]5CCC[C@@H](Cc6nnc[nH]6)N5)cc4)c(=O)nc3[nH]2)c1 [Compound 496]
- MIC [1, 3]: > 16 µg/mL
- MIC [2, 4]: > 16 µg/mL

SMILES: Cc1noc(C[C@@H]2CCC[C@@H](c3ccc(-n4cc5cc(-c6cc(CCC[C@H](C)N)cc(Cl)c6F)[nH]c5nc4=O)cc3)N2)n1 [Compound 497]
- MIC [1, 3]: < 16 µg/mL
- MIC [2, 4]: > 16 µg/mL

SMILES: C[C@H](N)CCCc1cc(Cl)c(F)c(-c2cc3cn(-c4ccc([C@@H]5CCC[C@@H](CC#N)N5)cc4)c(=O)nc3[nH]2)c1 [Compound 498]
- MIC [1, 3]: < 16 µg/mL
- MIC [2, 4]: > 16 µg/mL

SMILES: C[C@H](N)CCCc1cc(Cl)c(F)c(-c2cc3cn(-c4ccc(CN[C@H](CCNC(=N)N)Cn5ccnn5)cc4)c(=O)nc3[nH]2)c1 [Compound 499]
- MIC [1, 3]: < 16 µg/mL
- MIC [2, 4]: < 16 µg/mL

SMILES: C[C@H](N)CCCc1cc(Cl)c(F)c(-c2cc3cn(-c4ccc(CN[C@H](CCN)Cn5ccnn5)cc4)c(=O)nc3[nH]2)c1 [Compound 500]
- MIC [1, 3]: < 16 µg/mL
- MIC [2, 4]: < 16 µg/mL

SMILES: CC(=O)NCC[C@@H]1CCC[C@@H](c2ccc(-n3cc4cc(-c5cc(CCC[C@H](C)N)cc(Cl)c5F)[nH]c4nc3=O)cc2)N1 [Compound 501]
- MIC [1, 3]: > 16 µg/mL
- MIC [2, 4]: > 16 µg/mL

SMILES: N=C(NC1CC1)c1ccc(-n2cc3cc(-c4ccc(S(=O)(=O)NC5CCNCC5)cc4)[nH]c3nc2=O)cc1 [Compound 502]
- MIC [1, 3]: < 16 µg/mL
- MIC [2, 4]: < 16 µg/mL

SMILES: C[C@H](N)CCCc1cc(Cl)c(F)c(-c2cc3cn(-c4ccc(C(=N)NC5CC5)cc4)c(=O)nc3[nH]2)c1 [Compound 503]
- MIC [1, 3]: < 16 µg/mL
- MIC [2, 4]: < 16 µg/mL

SMILES: N=C(NC1CCCC1)c1ccc(-n2cc3cc(-c4ccc(S(=O)(=O)NC5CCNCC5)cc4)[nH]c3nc2=O)cc1 [Compound 504]
- MIC [1, 3]: > 16 µg/mL
- MIC [2, 4]: > 16 µg/mL

SMILES: C[C@H](N)CCCc1cc(Cl)c(F)c(-c2cc3cn(-c4ccc(C(=N)NC5CCCC5)cc4)c(=O)nc3[nH]2)c1 [Compound 505]
- MIC [1, 3]: < 16 µg/mL
- MIC [2, 4]: < 16 µg/mL

SMILES: CC#C[C@H](CCNC(=N)N)NCc1ccc(-n2cc3cc(-c4cc(CCC[C@H](C)N)cc(Cl)c4F)[nH]c3nc2=O)cc1 [Compound 506]
- MIC [1, 3]: < 16 µg/mL
- MIC [2, 4]: < 16 µg/mL

SMILES: CC#C[C@@H](CCNC(=N)N)NCc1ccc(-n2cc3cc(-c4cc(CCC[C@H](C)N)cc(Cl)c4F)[nH]c3nc2=O)cc1 [Compound 507]
- MIC [1, 3]: < 16 µg/mL
- MIC [2, 4]: < 16 µg/mL
